These results are taken from patent EP1153612A1, “ANTICANCER AGENT POTENTIATORS” (Tsuruo, Takashi, priority 1999, dated 2000).

In one test the test system is topoisomerase IIα. Description: Amount of expression of topoisomerase IIα in whole cell extract by western blotting. It is filed as cell-based, human. The source says: Topoisomerase II inhibiting anticancer drug stabilizes a complex (cleavable complex) consisting of the DNA and topoisomerase IIα occurring in a catalytic reaction process of topoisomerase IIα to cause DNA damage. Therefore, cell-killing effect of the topoisomerase II-inhibiting anticancer drug depends on the amount of intracellular expression of topoisomerase IIα essential for formation of the cleavable complex. Then, the amount of expression of topoisomerase IIα in the cultured cancer cell under the glucose starvation and hypoxia environment that are found in the solid cancer and the effect of the proteasome inhibiting agent to the amount of expression were examined.
The culture condition of cells is same as that described in Example 1 including the M phase synchronous culture method and culture under the glucose starvation condition. Culture under hypoxia condition, that is found in the solid cancer, similar to glucose starvation was carried out using the culture medium (that prepared by adding 5% FBS to RPMI1640 culture medium) under the ordinary condition in a Gaspack 100 anaerobic system (Becton Dickinson made). Culture under the glucose starvation condition and hypoxia condition was carried out for 14 hours .
With the purpose to prepare a whole cell extract solution, cells culture under the above described condition were washed with an ice-cooled PBS twice and then, cells were removed from the culture dish by using a cell scraper (Sumitomo Bakelite made) for collection. Cells collected were precipitated by centrifugation and then, dissolved in an SDS sample buffer to collect as the extract solution from all cells. For reference, the composition of the SDS sample buffer was 10% v/v, glycerol, 5% 2-mercaptoethanol, 2% SDS (sodium lauryl sulfate), and 62.5 mM tris-hydrochloric acid (pH 6.8).
The amount of topoisomerase IIα in the extract solution from all cells was measured by the western blotting method. The extract solution from all cells containing a total protein quantity of 30 µg was put on an SDS polyacrylamide gel (4-20 Multigel: Daiichi Pure Chemicals K.K. made) and subjected to electrophoresis in an electrophoresis buffer (25 mM tris, 192 mM glycine, and 0.1% SDS) in a 40 mA constant current for 1 hour. Subsequently, blotting was carried out in 4°C blotting buffer (25 mM tris, 192 mM glycine, and 20% methanol) in a 50 V constant voltage for 12 hours to transfer a protein separated in the SDS polyacrylamide gel to a nitrocellulose membrane. This nitrocellulose membrane was soaked in a blocking buffer (0.1% Tween 20, 4% skim milk-added PBS) for 1 hour to carry out blocking. The nitrocellulose membrane blocked was soaked in a solution, that was prepared by adding anti-topoisomerase IIα antibody (Cambridge Research Biochemicals Corp. made) of the final concentration 1 µg/ml as the primary antibody to the blocking buffer solution, for 1 hour. The nitrocellulose membrane was washed with the blocking buffer three times (5 minutes once), and then, soaked in the solution, in which a 1/1000 volume of an antimouse antibody (Amersham Pharmacia Biotech made) labeled with horse radish peroxidase as a secondary antibody had been added to the blocking buffer, for 1 hour. The nitrocellulose membrane was washed with the blocking buffer three times (5 minutes once), and then, washed with the PBS, to which 0.1% Tween 20 was added, three times (5 minutes once). The nitrocellulose membrane after completion of antibody reaction and washing was treated with the ECL reagent (Amersham Pharmacia Biotech made) after a handling manual and a topoisomerase IIα-specific signal was detected on an X-OMAT™AR film (Kodakmade). For reference, steps after blotting was carried out in a room temperature. […]
The cell culture condition for both M phase-synchronized culture method and culture under the glucose starvation condition was as described in Example 1. […]
(In general: In western blotting, separated proteins are transferred to a membrane and probed.)

Test [1] deals with human colon adenocarcinoma cell HT-29. Description: Sensitivity of cells to anticancer drug by colony formation method (M phase-synchronized cells, with or without proteasome inhibiting agent). It is filed as cell-based. Particulars: for effect of each inhibiting agent on etoposide sensitivity: etoposide 10 µg/ml, MG132, MG115 2.5 µM, E64, ZLLal 25 µM, FIG. 2; for change of cell-killing effect of camptothecin: PSI, MG132 2.5 µM 13 hours, camptothecin 4 hours, FIGS. 15 and 16. As for the experimental part:
In the glucose starvation environment found in the solid cancer, the effect of combined use of the proteasome inhibitor in a human colon adenocarcinoma cell HT-29 with the anticancer drug targeting topoisomerase II was tested.
Concerning culture media, for a culture condition in a normal state, RPMI 1640 medium (Nissui Pharmaceutical Co.-made) to which a 5% FBS (fetal bovine serum) was added and for the culture condition in the glucose starvation state symbolically found in the solid cancer, RPMI 1640 medium (Lifetech Oriental-made), lacking glucose, in which the 5% FBS was added were used, respectively. Culture was carried out using a CO2 incubator (Tabai Espec-made) under conditions of 5% CO2/95% air and humidity 100%.
In order to test sensitivity to the anticancer drug, the cell cycle synchronization culture methodwas employed. Nocodazol (Sigma made) was used to synchronize the cell cycle, cells in a logarithmic proliferation phase were treated with 40 ng/ml Nocodazol for 9 hours, and cells accumulated in cell division phase (Mpahse) were collected by gentle pipetting. M phase-synchronized cells collected through these steps were washed with PBS (phosphate buffered saline) followed by inoculation of 1×10^5 cells per well of 12 well-culture plate.
M phase-synchronized cells were cultured under the normal condition and the glucose starvation condition to conduct treatments with the proteasome inhibiting agent and the anticancer drug as follows. For cells under the glucose starvation condition, the culture medium, to which the proteasome inhibiting agent and the protease inhibiting agent not inhibiting proteasome were added as the control group, and the culture medium, to which no inhibiting agent has been added, was used. For cells under the normal condition, the culture medium, to which each inhibiting agent was not added, was used. After inoculation of cells, culture was carried out for 13 hours in each culture medium. […]
Sensitivity of cells to the anticancer drug was measured using the colony formation method. As described above, cells treated with the proteasome inhibiting agent and the anticancer drug were washed with PBS followed by soaking in trypsin (Lifetech Oriental made) solution and removed from a culture dish to suspend in an ordinary culture medium. These cells were inoculated again in 500 to 5000 cells for a 10 cm culture dish and cultured for 10 to 12 days to form a colony. The colony formed was fixed by 10% formaldehyde solution and stainedwith 0.01% crystal violet (Wako Pure Chemicals made) solution. Number of colony was counted and a Cell survival rate was calculated assuming that the number of colonies untreated with the anticancer drug is 1.
For reference, the proteasome inhibiting agent and the protease inhibiting agent not inhibiting proteasome used as described above were as follows. • (1) Proteasome inhibiting agent • . […] MG115 (carbobenzoxy-L-Leucyl-L-Leucyl-L-Norvalinal): final concentration 2.5 µM (Peptide Institute Inc. made) • . MG132 (carbobenzoxy-L-Leucyl-L-Leucyl-Leucinal) : final concentration 2.5 µM (Peptide Institute Inc. made) • . Lactacystin, final concentration 10 µM (Kindly supplied from The Kitasato Institute made) • (2) Protease inhibiting agent not inhibiting proteasome • . E64, final concentration 25 µM (Peptide Institute Inc. made) • . ZLLal (carbobenzoxy-L-Leucyl-L-Leucinal): final concentration 25 µM (Peptide Institute Inc. made)
The cell culture condition for both M phase-synchronized culture method and culture under the glucose starvation condition was as described in Example 1. M phase-synchronized cells were cultured in the culture medium, to which lactacystin of the final concentration 10 µM was added, or the culture medium, to which this was not added, as the proteasome inhibiting agent under the ordinary condition and the glucose starvation condition, respectively, for 13 hours. […]

The mark [2] stands for this setting: glucose starvation condition 14 hours, PSI, MG115, MG132 5 µM, lactacystin 10 µM, E64, ZLLal 50 µM, FIG. 5(a)-(c).
Setting [3] is: glucose starvation condition, final concentration of 2.5 µM, not presented as data.

Where a SMILES comes first, the peptide text is derived from it. [ ]: non-standard residue; d: D form. The star is where a group is joined. Nva = CCC[C@H](N)C(=O)O; Cbz = O=C(OCc1ccccc1)*; OtBu = CC(C)(C)O*

With `CCC[C@@H](C=O)NC(=O)[C@H](CC(C)C)NC(=O)[C@H](CC(C)C)NC(=O)OCc1ccccc1` [MG115, carbobenzoxy-L-Leucyl-L-Leucyl-L-Norvalinal] (Cbz-Leu-Leu-[Nva]-aldehyde), the “expressed amount of topoisomerase IIα” value in the test on topoisomerase IIα (setting [2]) is listed as “the expressed amount of topoisomerase IIα does not drop”; with topoisomerase IIα (setting [3]) it was “inhibited similarly decrease in expression of topoisomerase IIα”. In test [1] (glucose starvation condition), the “effect of each inhibiting agent on etoposide sensitivity” value (“effect of each inhibiting agent” below) is listed as “enhance sensitivity of cells to etoposide”.

Regarding `CC(C)C[C@@H](C=O)NC(=O)[C@H](CC(C)C)NC(=O)OCc1ccccc1` [ZLLal, carbobenzoxy-L-Leucyl-L-Leucinal], the “expressed amount of topoisomerase IIα” value in the test with topoisomerase IIα (setting [2]) is “the expressed amount of topoisomerase IIα very dropped”. Besides, the “effect of each inhibiting agent” value in test [1] (glucose starvation condition) is “seldom change sensitivity to etoposide”.

For `CC[C@H](C)[C@H](NC(=O)OCc1ccccc1)C(=O)N[C@@H](CCC(=O)OC(C)(C)C)C(=O)N[C@@H](C)C(=O)N[C@H](C=O)CC(C)C` [PSI, carbobenzoxy-L-Isoleucyl-γ-t-Butyl-L-Glutamyl-L-Alany 1-L-Leucinal] (Cbz-IE(OtBu)AL-aldehyde), the “expressed amount of topoisomerase IIα” value in the test on topoisomerase IIα (setting [2]) was “the expressed amount of topoisomerase IIα does not drop”; with topoisomerase IIα (setting [3]) it was “inhibited similarly decrease in expression of topoisomerase IIα”. In addition, the “sensitivity to etoposide of cancer cells, effect of inhibiting agent” value in test [1] (glucose starvation condition, PSI 2.5 µM, 13 hours, then etoposide 1 hour, FIG. 1) was “cells show sensitivity to etoposide even in the glucose starvation condition”. Further, the “change of cell-killing effect of camptothecin” value in test [1] (glucose starvation condition) is reported as “also enhance the effect of camptothecin”.

`CC(=O)NCCSC(=O)[C@]1([C@@H](O)C(C)C)NC(=O)[C@H](C)[C@@H]1O` [decarboxy lactacystin]: in the test with topoisomerase IIα (glucose starvation condition 13 hours, decarboxy lactacystin 0.5, 1, 2.5, and 5 µM, FIG. 19 bottom), the “amount of expression of topoisomerase IIα” value is on record as “inhibits lowering of expression of topoisomerase IIα by glucose starvation”. The “change of cell-killing effect of etoposide” value in test [1] (decarboxy lactacystin 5 µM 13 hours, etoposide 4 hours, ordinary and glucose starvation condition, FIG. 19 top) is listed as “enhances the cell-killing effect of etoposide”. Besides, in test [1] (ordinary condition, decarboxy lactacystin 5 µM 13 hours, SN38 4 hours, FIG. 20), the “change of cell-killing effect of SN38” value was “enhances the cell-killing effect of SN38”.

For the compound `N.N.[Cl][Pt][Cl]` [cisplatin], the “sensitivity of cancer cells to cisplatin” value in test [1] (under the stress environment (glucose starvation), cisplatin 4 hours, FIG. 18) is “high sensitivity”.

Regarding `CC(C)C[C@@H](C=O)NC(=O)[C@H](CC(C)C)NC(=O)[C@H](CC(C)C)NC(=O)OCc1ccccc1` [MG132, carbobenzoxy-L-Leucyl-L-Leucyl-Leucinal] (Cbz-Leu-Leu-Leu-aldehyde), the “expressed amount of topoisomerase IIα” value in the test with topoisomerase IIα (setting [2]) was “the expressed amount of topoisomerase IIα does not drop”. The “expressed amount of topoisomerase IIα” value in the test with topoisomerase IIα (setting [3]) is on record as “inhibited similarly decrease in expression of topoisomerase IIα”. In test [1] (glucose starvation condition), the “change of cell-killing effect of camptothecin” value was “also enhance the effect of camptothecin” and the “effect of each inhibiting agent” value was “enhance sensitivity of cells to etoposide”.

In the case of `CC(C)C[C@H](NC(=O)[C@H]1O[C@@H]1C(=O)O)C(=O)NCCCCNC(=N)N` [E64], the “expressed amount of topoisomerase IIα” value with topoisomerase IIα (setting [2]) is “the expressed amount of topoisomerase IIα very dropped”. Further, the “effect of each inhibiting agent” value in test [1] (glucose starvation condition) is “seldom change sensitivity to etoposide”.
